{"source": "patent US4868299A", "about": "“Antibacterially active pyrido-benzothiazine derivatives with long-term action” (Mediolanum Farmaceutici Srl, priority 1986, dated 1989)", "assay_in_all_cases": "in-vitro antibacterial activity, MIC by agar dilution (multipoint inoculator)", "format_in_all_cases": "cell-based", "key": {"Citrobacter 118": {"system": "Citrobacter 118", "settings": "for MIC: read-out: Minimum Inhibiting Concentration (MIC)", "experimental": "(§1) The antibacterial activity of the compounds according to the invention was determined \"in vitro\" on pathogenic strains of recent clinical isolation by testing agar dilutions using a multipoint inoculator (Denley Techn. Ltd., England).\n(§2) The culture medium used is isosensitest agar (Oxoid), in a quantity of 20 ml in a Petri capsule. The compounds to be tested were dissolved at various dilutions and incorporated in agar.\n(§3) The bacterial inoculum, originating from an overnight broth and containing 10^5 colony-forming units per point, was inoculated by a multipoint inoculator. The bacterial growth was evaluated after 18 hours of incubation at 37° C.\n(§4) For comparison purposes, the results relative to compound (XIII) and to nalidixic acid are also reported."}, "Citrobacter 120": {"system": "Citrobacter 120", "settings": "for MIC: read-out: Minimum Inhibiting Concentration (MIC)", "experimental": "as §1, §2, §3, §4"}, "Enterobacter 041": {"system": "Enterobacter 041", "settings": "for MIC: read-out: Minimum Inhibiting Concentration (MIC)", "experimental": "as §1, §2, §3, §4"}, "Enterobacter 2653": {"system": "Enterobacter 2653", "settings": "for MIC: read-out: Minimum Inhibiting Concentration (MIC)", "experimental": "as §1, §2, §3, §4"}, "Escherichia 15": {"system": "Escherichia 15", "settings": "18 hours at 37° C, read-out: Minimum Inhibiting Concentration (MIC)", "experimental": "as §1, §2, §3, §4"}, "Escherichia 963": {"system": "Escherichia 963", "settings": "for MIC: read-out: Minimum Inhibiting Concentration (MIC)", "experimental": "as §1, §2, §3, §4"}, "Klebsiella 4": {"system": "Klebsiella 4", "settings": "for MIC: read-out: Minimum Inhibiting Concentration (MIC)", "experimental": "as §1, §2, §3, §4"}, "Proteus 25": {"system": "Proteus 25", "settings": "for MIC: read-out: Minimum Inhibiting Concentration (MIC)", "experimental": "as §1, §2, §3, §4"}, "Proteus 966": {"system": "Proteus 966", "settings": "for MIC: read-out: Minimum Inhibiting Concentration (MIC)", "experimental": "as §1, §2, §3, §4"}, "Pseudomonas 19": {"system": "Pseudomonas 19", "settings": "for MIC: read-out: Minimum Inhibiting Concentration (MIC)", "experimental": "as §1, §2, §3, §4"}, "Pseudomonas 22437": {"system": "Pseudomonas 22437", "settings": "18 hours at 37° C; for MIC: read-out: Minimum Inhibiting Concentration (MIC)", "experimental": "as §1, §2, §3, §4"}, "Serratia 9": {"system": "Serratia 9", "settings": "for MIC: read-out: Minimum Inhibiting Concentration (MIC)", "experimental": "as §1, §2, §3, §4"}, "Staphylococcus 29": {"system": "Staphylococcus 29", "settings": "for MIC: read-out: Minimum Inhibiting Concentration (MIC)", "experimental": "as §1, §2, §3, §4"}, "Staphylococcus 7": {"system": "Staphylococcus 7", "settings": "for MIC: read-out: Minimum Inhibiting Concentration (MIC)", "experimental": "as §1, §2, §3, §4"}, "Serratia 10": {"system": "Serratia 10", "settings": "18 hours at 37° C, read-out: Minimum Inhibiting Concentration (MIC)", "experimental": "as §1, §2, §3, §4"}, "[1]": {"settings": "Citrobacter 118, 18 hours at 37° C"}, "[2]": {"settings": "Citrobacter 120, 18 hours at 37° C"}, "[3]": {"settings": "Enterobacter 041, 18 hours at 37° C"}, "[4]": {"settings": "Enterobacter 2653, 18 hours at 37° C"}, "[5]": {"settings": "Escherichia 963, 18 hours at 37° C"}, "[6]": {"settings": "Klebsiella 4, 18 hours at 37° C"}, "[7]": {"settings": "Pseudomonas 19, 18 hours at 37° C"}, "[8]": {"settings": "Staphylococcus 29, 18 hours at 37° C"}, "[9]": {"settings": "Staphylococcus 7, 18 hours at 37° C"}}, "note": "Like-named read-outs stand apart in the source and are kept apart here.", "data": [{"compound": "CCn1cc(C(=O)O)c(=O)c2ccc(C)nc21", "note": "[NALIDIXIC ACID, nalidixic acid, reference compound]", "values": [{"measurement": "MIC", "setting": "Citrobacter 118; Citrobacter, 118, 18 h", "result": 12.5, "unit": "µg/mL"}, {"measurement": "MIC", "setting": "Citrobacter 120; Citrobacter, 120, 18 h", "result": 12.5, "unit": "µg/mL"}, {"measurement": "MIC", "setting": "Enterobacter 041; Enterobacter, 041, 18 h", "result": 3.12, "unit": "µg/mL"}, {"measurement": "MIC", "setting": "Enterobacter 2653; Enterobacter, 2653, 18 h", "result": 1.56, "unit": "µg/mL"}, {"measurement": "MIC", "setting": "Escherichia 15", "result": 3.12, "unit": "µg/mL"}, {"measurement": "MIC", "setting": "Escherichia 963; Escherichia, 963, 18 h", "result": "> 25", "unit": "µg/mL"}, {"measurement": "MIC", "setting": "Klebsiella 4; Klebsiella, 4, 18 h", "result": 3.12, "unit": "µg/mL"}, {"measurement": "MIC", "setting": "Proteus 25; 18 h", "result": 12.5, "unit": "µg/mL"}, {"measurement": "MIC", "setting": "Proteus 966; 18 h", "result": "> 25", "unit": "µg/mL"}, {"measurement": "MIC", "setting": "Pseudomonas 19; Pseudomonas, 19, 18 h", "result": "> 25", "unit": "µg/mL"}, {"measurement": "MIC", "setting": "Pseudomonas 22437", "result": "> 25", "unit": "µg/mL"}, {"measurement": "MIC", "setting": "Serratia 9; Serratia, 9, 18 h", "result": "> 25", "unit": "µg/mL"}, {"measurement": "MIC", "setting": "Staphylococcus 29; Staphylococcus, 29, 18 h", "result": "> 25", "unit": "µg/mL"}, {"measurement": "MIC", "setting": "Staphylococcus 7; Staphylococcus, 7, 18 h", "result": "> 25", "unit": "µg/mL"}]}, {"compound": "CC1Cn2cc(C(=O)O)c(=O)c3cc(F)c(Cl)c(c32)S1", "note": "(stereo not drawn) [reference compound]", "values": [{"measurement": "MIC", "setting": "Citrobacter 118; [1]", "result": 1, "unit": "µg/mL"}, {"measurement": "MIC", "setting": "Citrobacter 120; [2]", "result": "> 32", "unit": "µg/mL"}, {"measurement": "MIC", "setting": "Enterobacter 041; [3]", "result": 0.12, "unit": "µg/mL"}, {"measurement": "MIC", "setting": "Enterobacter 2653; [4]", "result": 0.12, "unit": "µg/mL"}, {"measurement": "MIC", "setting": "Escherichia 15", "result": 0.25, "unit": "µg/mL"}, {"measurement": "MIC", "setting": "Escherichia 963; [5]", "result": 16, "unit": "µg/mL"}, {"measurement": "MIC", "setting": "Klebsiella 4; [6]", "result": 0.12, "unit": "µg/mL"}, {"measurement": "MIC", "setting": "Proteus 25; Proteus 25, 18 hours at 37° C", "result": "> 32", "unit": "µg/mL"}, {"measurement": "MIC", "setting": "Proteus 966; Proteus 966, 18 hours at 37° C", "result": "> 32", "unit": "µg/mL"}, {"measurement": "MIC", "setting": "Pseudomonas 19; [7]", "result": "> 32", "unit": "µg/mL"}, {"measurement": "MIC", "setting": "Pseudomonas 22437", "result": "> 32", "unit": "µg/mL"}, {"measurement": "MIC", "setting": "Serratia 10", "result": 0.25, "unit": "µg/mL"}, {"measurement": "MIC", "setting": "Serratia 9; Serratia 9, 18 hours at 37° C", "result": "> 32", "unit": "µg/mL"}, {"measurement": "MIC", "setting": "Staphylococcus 29; [8]", "result": 0.12, "unit": "µg/mL"}, {"measurement": "MIC", "setting": "Staphylococcus 7; [9]", "result": 0.12, "unit": "µg/mL"}]}, {"compound": "ethyl 9-fluoro-10-chloro-2-methyl-7-oxo-2,3-dihydro-7H-pyrido[1,2,3-de][1,4]benzothiazine-1-sulphoxide-6-carboxylate [(II)]", "values": [{"measurement": "Minimum Inhibiting Concentration (MIC)", "setting": "Citrobacter 118; [1]", "result": 0.5, "unit": "µg/mL"}, {"measurement": "Minimum Inhibiting Concentration (MIC)", "setting": "Citrobacter 120; [2]", "result": 0.5, "unit": "µg/mL"}, {"measurement": "Minimum Inhibiting Concentration (MIC)", "setting": "Enterobacter 041; [3]", "result": 0.12, "unit": "µg/mL"}, {"measurement": "Minimum Inhibiting Concentration (MIC)", "setting": "Enterobacter 2653; [4]", "result": 0.25, "unit": "µg/mL"}, {"measurement": "Minimum Inhibiting Concentration (MIC)", "setting": "Escherichia 963; [5]", "result": 2, "unit": "µg/mL"}, {"measurement": "Minimum Inhibiting Concentration (MIC)", "setting": "Klebsiella 4; [6]", "result": 0.25, "unit": "µg/mL"}, {"measurement": "Minimum Inhibiting Concentration (MIC)", "setting": "Proteus 25; Proteus 25, 18 hours at 37° C", "result": 4, "unit": "µg/mL"}, {"measurement": "Minimum Inhibiting Concentration (MIC)", "setting": "Proteus 966; Proteus 966, 18 hours at 37° C", "result": 4, "unit": "µg/mL"}, {"measurement": "Minimum Inhibiting Concentration (MIC)", "setting": "Pseudomonas 19; [7]", "result": 16, "unit": "µg/mL"}, {"measurement": "Minimum Inhibiting Concentration (MIC)", "setting": "Pseudomonas 22437", "result": 16, "unit": "µg/mL"}, {"measurement": "Minimum Inhibiting Concentration (MIC)", "setting": "Serratia 9; Serratia 9, 18 hours at 37° C", "result": 8, "unit": "µg/mL"}, {"measurement": "Minimum Inhibiting Concentration (MIC)", "setting": "Staphylococcus 29; [8]", "result": 1, "unit": "µg/mL"}, {"measurement": "Minimum Inhibiting Concentration (MIC)", "setting": "Staphylococcus 7; [9]", "result": 1, "unit": "µg/mL"}]}]}
